Biological target: T1, human recombinant Yes [a.a. 2–543 (end)] (Homo sapiens, UniProt P07947)
T1 construct: human recombinant Yes [a.a; 2–543 (end)]; purchased BPS Bioscience 40488
Experiment: ADP-Glo kinase assay, inhibition rates of Yes phosphorylation activity (first and second screening)
Type: biochemical
Conditions: first screening; mean of n = 4 wells; 10 μmol L−1 compound
Summary of the method: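 ADP-Glo luminescence measured inhibition of human recombinant Yes (a.a. 2–543) phosphorylation activity. In the first screen, each compound ran in 4 wells and inhibition rates were averaged. The second screen retested hits as compounds dissolved from fresh powder.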

T1 sequence (P07947 2-543): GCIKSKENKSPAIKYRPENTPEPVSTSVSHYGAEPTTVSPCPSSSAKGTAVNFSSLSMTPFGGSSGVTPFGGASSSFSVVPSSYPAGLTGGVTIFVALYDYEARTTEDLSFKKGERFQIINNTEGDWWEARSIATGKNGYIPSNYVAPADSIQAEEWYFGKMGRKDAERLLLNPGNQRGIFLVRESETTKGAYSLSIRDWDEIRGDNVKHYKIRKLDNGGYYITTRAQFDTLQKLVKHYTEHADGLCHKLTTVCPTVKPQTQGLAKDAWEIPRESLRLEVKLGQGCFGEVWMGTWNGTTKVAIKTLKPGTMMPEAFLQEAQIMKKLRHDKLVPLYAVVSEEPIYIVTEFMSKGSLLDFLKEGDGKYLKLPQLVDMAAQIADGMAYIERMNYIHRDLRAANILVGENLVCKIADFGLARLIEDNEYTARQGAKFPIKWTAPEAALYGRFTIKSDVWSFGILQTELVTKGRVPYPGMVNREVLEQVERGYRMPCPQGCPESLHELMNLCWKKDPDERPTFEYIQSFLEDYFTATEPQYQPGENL

Structure (SMILES)	First screening IR (inhibition rate)
O=C(/C=C/c1ccsc1)NC(c1ccccc1)c1cccs1 (stereo not drawn) [Compound Z89582531]	1%
Cc1cc(/C=C/C(=O)N2CCN(C3CCS(=O)(=O)C3)CC2)c(C)n1-c1ccc2c(c1)OCO2 (stereo not drawn) [Compound Z89622401]	-12%
Cc1ccc(C(=O)OCc2nc(N)nc(Nc3ccccc3)n2)s1 [Compound Z89671452]	-2%
Cc1nn(Cc2ccccc2)c(Cl)c1C(=O)OCc1nc(N)nc(Nc2ccccc2)n1 [Compound Z89784395]	0%
Cc1ccc(Cn2nc(C)c(C(=O)OCc3nc(N)nc(Nc4ccccc4)n3)c2Cl)cc1 [Compound Z89857426]	22%
c1csc(-c2noc(CSc3nnc(C4CC4)n3C3CC3)n2)c1 [Compound Z90118492]	4%
CCn1ncc2c(C(=O)OC)cc(-c3ccccc3)nc21 [Compound Z90171664]	11%
CCn1ncc2c(C(=O)OC)cc(-c3cccs3)nc21 [Compound Z90171904]	20%
O=S(=O)(c1c(Cl)cccc1Cl)N1CCN(Cc2nc(-c3cccc(Cl)c3)no2)CC1 [Compound Z90231169]	-8%
O=S(=O)(c1ccccc1Cl)N1CCN(Cc2nc(-c3cccc(Cl)c3)no2)CC1 [Compound Z90240663]	-3%
COC(=O)c1cc(-c2ccc(F)cc2)nc2c1c(C)nn2C1CCS(=O)(=O)C1 (stereo not drawn) [Compound Z90289702]	-1%
COC(=O)c1cc(-c2ccc(C)cc2)nc2c1cnn2C(C)C [Compound Z90671680]	26%
Cn1c(CNS(=O)(=O)c2ccc(C(F)(F)F)cc2)nc2ccccc21 [Compound Z90694917]	-18%
CCCn1c(C)cc(-c2csc(NC(=O)CCN3C(=O)COc4ccccc43)n2)c1C [Compound Z90896104]	-7%
O=C(CCCC1CCCCC1)Nc1ccc(-c2cnc[nH]2)cc1 [Compound Z91026356]	0%
CC(NC(=O)CCc1c[nH]c2ccccc12)c1cc2ccccc2o1 (stereo not drawn) [Compound Z91037735]	1%
COC(=O)c1cc(-c2ccc(OC)c(OC)c2)nc2c1c(C)nn2C1CCS(=O)(=O)C1 (stereo not drawn) [Compound Z91043666]	2%
COC(=O)c1cc(-c2ccccc2F)nc2c1cnn2C(C)C [Compound Z91043804]	-6%
CC(C)C(NC(=O)c1ccc(S(=O)(=O)N(C)C)cc1)c1ccc2c(c1)OCCCO2 (stereo not drawn) [Compound Z91218489]	5%
Cc1ccccc1-n1c(SCC(=O)c2cc(C)n(CC3CCCO3)c2C)nnc1N1CCOCC1 (stereo not drawn) [Compound Z92475228]	14%
Cc1cccc(-n2c(SCC(=O)c3cc(C)n(CC4CCCO4)c3C)nnc2N2CCOCC2)c1 (stereo not drawn) [Compound Z92479374]	3%
O=C(CSc1nnc(-c2cccnc2)n1C1CC1)Nc1nc(-c2ccc(F)cc2)cs1 [Compound Z92534919]	10%
Cc1cc(NC(=O)Cn2nc(C)c(S(=O)(=O)N3CCCCC3)c2C)no1 [Compound Z92593810]	-4%

Structure (SMILES)	First screening IR (inhibition rate)
O=C(OCc1cccc(C(F)(F)F)c1)c1n[nH]c(=O)c2ccccc12 [Compound Z94561070]	-11%
O=C1COc2ccc(C(=O)/C=C/c3ccc(OC(F)F)cc3)cc2N1 [Compound Z94572736]	3%
Cc1nn(-c2ccccc2)c(Cl)c1CN1CCN(S(=O)(=O)c2ccccc2C(F)(F)F)CC1 [Compound Z94609806]	3%
O=C(NCc1ccncc1)c1cnn(-c2ccc(Cl)cc2)c1C(F)(F)F [Compound Z94739043]	6%
COc1ccc(-c2cc(-c3cc4ccccc4o3)nc3c2cnn3C(C)C)cc1 [Compound Z94751514]	3%
O=C1Nc2ccccc2/C1=C\c1cnn(-c2ccccc2)c1 [Compound Z95045593]	32%
O=C1Nc2cc(Cl)ccc2/C1=C\c1cnn(-c2ccccc2)c1 [Compound Z95046696]	4%
O=C(O)/C(=C\c1cccc(C(F)(F)F)c1)Sc1nnc(-c2ccco2)o1 [Compound Z95207137]	-11%
CCCn1c(/C(Cl)=C/c2ccc(F)c(F)c2)nc2cc(S(=O)(=O)N3CCOCC3)ccc21 [Compound Z95254533]	14%
CC(C)C(NC(=O)c1ccc(CNC(N)=O)cc1)c1ccccc1 (stereo not drawn) [Compound Z96018682]	-1%
O=C(Nc1ccccc1)C1CCN(C(=O)C2CCOCC2)CC1 [Compound Z96031302]	1%
CCN(CCCNC(=O)c1cn(-c2ccccc2)nc1-c1cccnc1)c1ccccc1 [Compound Z96041573]	-8%
COc1ccc(OC)c(C2CCCN2C(=O)CSc2nnc(Nc3ccccc3C)s2)c1 (stereo not drawn) [Compound Z96342510]	9%
CCCc1cc(=O)oc2cc(OCC(=O)N(C)CC3COc4ccccc4O3)ccc12 (stereo not drawn) [Compound Z97092537]	30%
COc1ccc(-n2c(=O)c3ccccc3n3c(SCC(=O)NC(C)CCCC(C)C)nnc23)cc1 (stereo not drawn) [Compound Z97290306]	-3%
CCN(Cc1ccc2c(c1)OCCO2)C(=O)CSc1nnc(C(C)N(C)C)n1-c1ccc(F)cc1 (stereo not drawn) [Compound Z97565837]	15%
O=C(CSc1nnc(-c2cccnc2)n1C1CC1)c1ccc2c(c1)OCCCO2 [Compound Z98268667]	5%
COc1ccc(C(=O)N[C@@H]2C(=O)Nc3c(c(C)nn3C)[C@H]2c2cccc(C(F)(F)F)c2)cc1OC [Compound Z98361471]	17%
Cc1ccc(-n2c(SCC(=O)c3cc(C)n(CC4CCCO4)c3C)nnc2N2CCOCC2)cc1 (stereo not drawn) [Compound Z98369603]	22%
Cc1ccc(-n2c(SCC(=O)c3ccc(NC(=O)C(C)(C)C)cc3)nnc2N2CCOCC2)cc1 [Compound Z98370329]	11%
O=C(O)c1cc(-c2cccnc2)nc2c1cnn2Cc1cccnc1 [Compound Z98638708]	13%
Cc1nnc(SCC(=O)c2cc3cc(Cl)ccc3o2)n1C1CC1 [Compound Z98941608]	10%
COc1ccccc1NC(=O)c1ccc(NC(=O)COc2ccc(-c3nc(C)cs3)cc2)cc1 [Compound Z99004386]	5%

Structure (SMILES)	First screening IR (inhibition rate)
O=C(Cc1csc(-c2ccsc2)n1)Nc1ccc2nc(N3CCOCC3)sc2c1 [Compound Z99468124]	8%
Nc1nc(N)nc(CSCc2ccc(-c3ccccc3)cc2)n1 [Compound Z99552008]	-6%
CSc1ccc(CSCc2nc(N)nc(Nc3ccccc3)n2)cc1 [Compound Z99558919]	-15%
O=C(Nc1ccc(S(=O)(=O)Nc2nccs2)cc1)c1cnn(Cc2ccccc2)c1 [Compound Z100622740]	61%
CNS(=O)(=O)c1ccc(NC(=O)c2cn(-c3ccccc3)nc2-c2cccnc2)cc1 [Compound Z101840388]	11%
O=C(NCCNc1ncc(C(F)(F)F)cc1Cl)c1ccc2nc[nH]c2c1 [Compound Z101998542]	25%
CC(=O)c1c(C)[nH]c(C(=O)NCCCn2cnc3ccccc32)c1C [Compound Z102448822]	20%
CSCCC(NC(=O)c1ccco1)C(=O)NCc1ccc(CN(C)C)cc1 (stereo not drawn) [Compound Z102556578]	-3%
c1ccc(-n2ncc3c(SCCc4ccncc4)ncnc32)cc1 [Compound Z103069550]	11%
CCCCn1c(CN2CCN(C(=O)c3ccco3)CC2)nc2c1c(=O)[nH]c(=O)n2Cc1ccccc1 [Compound Z104777504]	-22%
CCCCn1c(CN2CCN(c3ncccn3)CC2)nc2c1c(=O)[nH]c(=O)n2Cc1ccccc1 [Compound Z104925552]	9%
CCCCn1c(CN2CCN(c3ccccn3)CC2)nc2c1c(=O)[nH]c(=O)n2Cc1ccccc1 [Compound Z104935524]	2%
O=S(=O)(c1ccccc1C(F)(F)F)N1CCN(Cc2ncc(-c3ccc(Cl)cc3)o2)CC1 [Compound Z105146244]	-3%
O=C(CN1CCSc2ccccc21)N1CCN(S(=O)(=O)c2ccc(Cl)s2)CC1 [Compound Z105335628]	-5%
Cc1ccccc1CN1CCN(CC(=O)c2cc(C)n(CC3CCCO3)c2C)CC1 (stereo not drawn) [Compound Z105957250]	15%
CCCCn1c(CN2CCN(C(=O)C3CCCO3)CC2)nc2c1c(=O)[nH]c(=O)n2Cc1ccccc1 (stereo not drawn) [Compound Z105965792]	1%
Cc1cccc(C)c1NC(=O)CN1CCN(C(C(=O)N2CCCCC2)c2ccccc2)CC1 (stereo not drawn) [Compound Z106611352]	-11%
CN(C)C(=O)CN1CCN(CC(=O)Nc2cc(-c3ccc4c(c3)CCC4)nn2-c2ccccc2)CC1 [Compound Z106627256]	-3%
Cc1cc(Br)ccc1NC(=O)Cn1nc(C)c(S(=O)(=O)N2CCC(C)CC2)c1C [Compound Z107308838]	-17%
Oc1c(-c2nc3ccccc3c3ccccc23)sc2ncccc12 [Compound Z107727738]	43%
COc1ccc(C(=O)Nc2n[nH]c(-c3ccc(F)cc3)n2)cc1 [Compound Z108548640]	6%
CC(C)(Oc1ccc(Cl)cc1)C(=O)Nc1n[nH]c(-c2ccc(F)cc2)n1 [Compound Z108548764]	16%

Same assay, conditions: second screening, dissolved from fresh powder; n = 4; 10 μmol L−1 compound

Structure (SMILES)	Second screening IR (inhibition rate)
Oc1c(-c2nc3ccccc3c3ccccc23)sc2ncccc12 [Compound Z107727738]	24%
